From patent publication US20250327794A1, “FLUOROMETRIC METHODS FOR DETECTION OF ALLERGIC SENSITIVITY TO ENVIRONMENTAL, FOODSTUFF, AND MEDICAMENT STIMULANTS” (CELL SCIENCE SYSTEMS CORPORATION, priority 2022, published 2025) come the findings set out here.

The test system of one test is white blood cells. Briefly: DHR 123 flow cytometry blood test: RH 123 fluorescence (ROS generation), channel 1 FL1-A. In kind it is cell-based, human. As for the experimental part: See FIG. 1 and FIG. 2 for exemplary flow diagrams of the method. Whole peripheral blood samples were obtained from subjects and collected in lithium heparin tubes. Samples were diluted 1:100 in electrolyte solution supplemented with 10% heat-inactivated fetal-bovine serum (FBS). Samples were incubated with 5 μg of dihydrorhodamine 123 (DHR 123) at 37° C. under 5% CO2 for 15 min. Cells were treated with 1 μM Phorbol-12-Myristate-13-Acetate (PMA), an exogenous stimulant, or an equal volume of PBS (negative control), and incubated for 30 min to 1 hr.
RBCs of the sample were lysed, fixed, and removed prior to flow cytometry analysis. Briefly, cells were lysed and partially fixed using 3% (v/v) lysis buffer and 1% (v/v) formaldehyde in phosphate-buffered saline (PBS). Samples were incubated for 2 min or until turbidity of the solution was resolved indicating essentially complete lysis of RBCs, and the sample centrifuged at 300×g for 5 min at room temperature (RT). RBC-containing supernatant was discarded, and remaining leukocytes were fixed using 3.7% (v/v) formaldehyde and centrifuged at 300×g at RT for 5 min. Samples were washed twice in FBS and centrifuged at 300×g at RT for 5 min. After washing, the cells were blocked with FC block (Invitrogen, USA) and 2% FBS for 30 min on ice and then incubated with staining buffer containing manufacturer-specified dilutions of fluorophore-conjugated antibodies specific for granulocytes (e.g., neutrophils, basophils, and/or eosinophils) or granulocyte activation (e.g., degranulation). Cells were washed twice and resuspended in PBS prior to analysis using a BD Accuri C6 Flow Cytometer (BD Biosciences, USA). Statistical analysis was performed using the FlowJo v10 (FlowJo, Oregon, USA).
A sample of whole blood was treated with DHIR 123 or mock at 37° C. for 15 min, then treated with phorbol 12-myristate 13-acetate (PMA) and incubated for 25 min. Red and white blood cells were lysed and fixed as described above. Flow cytometry results are shown in FIGS. 3A-3D for negative control (FIG. 3A), DHR 123 only treated control (FIG. 3B), DHR 123+PMA treated (FIG. 3C), as well as an overlap plot of each (FIG. 3D).
Provided below is an exemplary protocol for DHR 123 treatment and cell surface marker staining for DHR 123 flow cytometry blood test. • 1. Obtain a blood sample from a subject; e.g., • 1 mL blood sample for each person was obtained. • 2. Treat with DHR 123 and/or stimulant (e.g., PMA); e.g., • 100 μL whole blood was used for each group: 1) cell only control; 2) DHR 123 loaded cells; 3) DHR 123 loaded cells stimulated with stimulant (e.g., PMA). […] Fix and lyse the cells; e.g., • After stimulant treatment, the cells were fixed and red blood cells were concurrently lysed by adding lysis/fixation solution (e.g., 850 μL (800 μl PBS, 25 μL lyse solution, […])) and incubating 5 min at room temperature. • 4. Prepare cells for staining; e.g., • Cells were centrifuged and the supernatant discarded; • Formaldehyde solution (e.g., 500 μL, 3.7% formaldehyde) was added and incubated for 5 more minutes for fixation; • Cells were centrifuged and the supernatant discarded; • Cells were washed with 350 μL PBS twice, and then centrifuged before discarding the supernatant; • Cells were centrifuged and the supernatant discarded; • 5. Stain the cells; e.g., • 80 μL staining buffer (PBS+0.1% albumin+0.01% tween 20) was added, along with 5 μL of antibody solution for CD16, CD123 and CD193 and the sample incubated for 30 min at room temperature; • 6. Prepare cells for flow cytometry; e.g., • Cells were washed with PBS, centrifuged and the supernatant discarded; • Cells were resuspended in 125 μL PBS for subsequent flow cytometer analysis.
Flow cytometry analysis of human blood samples was performed following exposure to exogenous dust mite (“DM”) stimulant using time course measurements of RH 123 and PI fluorescence. […]
(A flow cytometer gives signals particle by particle.)

Another test relates to eosinophils. Kind of test: Eosinophil activation: RH 123 signal in CD193(+)/CD16(-) gated cells. In kind it is cell-based, human. The source says: Activation of eosinophils from human blood samples following exposure to exogenous stimulants was investigated using flow cytometry analysis of RH 123 fluorescence, as well as cell surface markers CD16 and CD193, and side scattering profiles. CD193 (CCR3; Chemokine C—C motif receptor 3) is a surface marker expressed in eosinophils and basophils. FIGS. 23A-23C show density plots of CD193 fluorescence signal on channel 3 (FL3-A) for DHR 123 only (FIG. 23A), DHR 123+PMA stimulant (FIG. 23B), and DHR 123+DM stimulant (FIG. 23C) following exposure to stimulant for 1.5 hours. FIGS. 23D-23F show corresponding gated RH 123 results (MFI=32944, MFI=70320, and MFI=28522, respectively). FIGS. 24A-24C show density plots of CD193 fluorescent signals at channel 3 (FL3-A) for DHR 123 only (FIG. 24A), DHR 123+DM stimulant (FIG. 24B), and DHR 123+RWP stimulant (FIG. 24C) following exposure to stimulant for 2.5 hours. FIGS. 24D-24F show corresponding gated RH 123 results (FIG. 24D, DHR 123 only: MFI=10156; FIG. 24E, DHR 123+DM stimulant: MFI=19911, and […], DHR 123+RWP stimulant: MFI=17210).
Eosinophil population was selected using CD193(+) and CD16(−) expression profiles (shown in FIGS. 23A-23C and […] as encircled). Eosinophil population was reduced in PMA stimulant, DM stimulant and RWP stimulant exposed groups. In addition, DHR 123 signals in gated eosinophils was higher than DHR 123 only control group after 2.5-hour incubation. Thus, it was concluded that eosinophils are activated by dust mite and ragweed pollen stimulants according to this method.

Setting [1] is: after 40-minute stimulation of PMA.

SMILES strings stand for the structures.

Take `CCCCCCCCCCCCCC(=O)O[C@@H]1[C@@H](C)[C@@]2(O)[C@@H](C=C(CO)C[C@]3(O)C(=O)C(C)=C[C@@H]23)[C@@H]2C(C)(C)[C@]12OC(C)=O` [PMA, Phorbol-12-Myristate-13-Acetate]: the “activation of granulocyte populations (summary of Example 2)” value in the test on white blood cells is given as “induced the activation of all granulocyte populations”. Further, the “stimulation of lymphocytes (in words)” value in the test with white blood cells (CD33(−) lymphocyte population (M1)) is on record as “not stimulated”. Moreover, the “Mean FL1-A (0.5 h)” value in the test on white blood cells (R123, 0.5 h, PMA, RWP1 2.5 μL, MLK, CUC, BAS 5 μL per 100 μL blood (Table 5)) is recorded as 58,792.96. Besides, the “Mean FL1-A (1.5 h)” value with white blood cells (R123, 1.5 h, PMA, RWP1 2.5 μL, MLK, CUC, BAS 5 μL per 100 μL blood (Table 5)) is on record as 168,741.44. The “Mean FL1-A (2.5 h)” value in the test on white blood cells (R123, 2.5 h, PI stained, PMA, RWP1 2.5 μL, MLK, CUC, BAS 5 μL per 100 μL blood (Table 5)) was 361,510.02. Moreover, the “MFI (0.5 h) FL1-A” value in the test on white blood cells (RH 123, 0.5 h incubation, PMA or DM 2 μL/100 μL blood) is listed as 5,076.27. The “MFI (1.5 h) FL1-A” value in the test on white blood cells (RH 123, 1.5 h incubation, PMA or DM 2 μL/100 μL blood) is 14,093.83. Further, the “MFI (2.5 h) FL1-A” value with white blood cells (RH 123, 2.5 h, increased stimulant, 8 μL DM or RWP per 100 μL blood (Table 7)) is recorded as 10,553.44. Besides, the “MFI (2.5 h) FL1-A” value in the test on white blood cells (RH 123, 2.5 h incubation, PI stained, PMA or DM 2 μL/100 μL blood) is given as 9,353.98. Moreover, in the test on white blood cells (setting [1]), the “RH 123 average intensity of peak” value is “about 10^6 unit” and the “RH 123 average intensity relative to negative control (DHR 123 only)” value is listed as around 500 times. Also, in the test on white blood cells (vs cells loaded with DHR 123 only), the “RH 123 fluorescence / ROS generation (in words)” value is reported as “strong green fluorescence”. In addition, the “CD193 signal over incubation time” value in the test on eosinophils (1-3 hr incubation, DHR 123 and PMA) is given as “decreased”. For the same compound, in the test with eosinophils (1.5 hours exposure, DHR 123 only control MFI=32944), the “gated RH 123 signal MFI, CD193 gated” value came out at 70320. In the test on eosinophils (CD193(+) and CD16(−) population in stimulant exposed groups), the “eosinophil population (in words)” value is recorded as “reduced”.
